Measured values published in publication PMC2774619 (Current Chemical Genomics, 2008).
Counter-ions that a name gives are not always drawn. Peptide text beside a SMILES is read from it.

Assays:
[1] = target: murine M1 muscarinic acetylcholine receptor (Rattus norvegicus, UniProt P08482); assay: cell-based; details: IC50, IP-One Assay
[2] = target: free fatty acid receptor 1 (FFAR1) (Homo sapiens, UniProt O14842)
[3] = target: neuropeptide S (NPS) receptor (Homo sapiens, UniProt Q6W5P4); details: NPSR
NPS receptor = details: read-out: Kd value of NPS receptor binding; reported previously; cited from earlier work
[4] = target: NPS receptor (Homo sapiens) (UniProt Q6W5P4); details: cited from earlier work
NPS receptor (Homo sapiens), sequence (Q6W5P4 whole entry): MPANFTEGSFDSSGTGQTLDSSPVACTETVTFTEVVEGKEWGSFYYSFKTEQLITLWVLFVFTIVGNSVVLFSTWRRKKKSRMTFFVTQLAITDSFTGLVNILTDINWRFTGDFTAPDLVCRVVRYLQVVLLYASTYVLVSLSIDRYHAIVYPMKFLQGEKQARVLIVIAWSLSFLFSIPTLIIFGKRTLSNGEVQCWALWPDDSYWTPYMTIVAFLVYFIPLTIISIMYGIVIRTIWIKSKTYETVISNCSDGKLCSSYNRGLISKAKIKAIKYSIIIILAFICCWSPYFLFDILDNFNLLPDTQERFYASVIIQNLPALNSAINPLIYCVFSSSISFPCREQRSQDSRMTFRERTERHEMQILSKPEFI

murine M1 muscarinic acetylcholine receptor, sequence (P08482 whole entry): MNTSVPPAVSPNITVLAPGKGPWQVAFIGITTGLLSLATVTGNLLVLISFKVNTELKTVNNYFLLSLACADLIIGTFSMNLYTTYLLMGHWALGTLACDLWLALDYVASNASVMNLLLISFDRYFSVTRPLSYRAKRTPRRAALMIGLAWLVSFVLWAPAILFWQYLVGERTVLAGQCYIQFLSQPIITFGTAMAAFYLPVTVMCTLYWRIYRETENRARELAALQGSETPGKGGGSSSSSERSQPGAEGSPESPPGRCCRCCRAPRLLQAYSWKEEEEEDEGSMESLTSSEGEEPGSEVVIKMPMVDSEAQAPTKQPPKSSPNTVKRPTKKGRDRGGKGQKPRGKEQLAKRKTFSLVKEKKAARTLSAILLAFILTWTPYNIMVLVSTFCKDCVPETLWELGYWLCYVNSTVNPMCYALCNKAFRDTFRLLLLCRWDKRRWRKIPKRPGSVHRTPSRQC
neuropeptide S (NPS) receptor, sequence (Q6W5P4 whole entry): as the sequence (Q6W5P4 whole entry) above
Neuropeptide S, sequence (P0C0P6 68-89): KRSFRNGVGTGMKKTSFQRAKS
free fatty acid receptor 1 (FFAR1), sequence (O14842 whole entry, species assumed): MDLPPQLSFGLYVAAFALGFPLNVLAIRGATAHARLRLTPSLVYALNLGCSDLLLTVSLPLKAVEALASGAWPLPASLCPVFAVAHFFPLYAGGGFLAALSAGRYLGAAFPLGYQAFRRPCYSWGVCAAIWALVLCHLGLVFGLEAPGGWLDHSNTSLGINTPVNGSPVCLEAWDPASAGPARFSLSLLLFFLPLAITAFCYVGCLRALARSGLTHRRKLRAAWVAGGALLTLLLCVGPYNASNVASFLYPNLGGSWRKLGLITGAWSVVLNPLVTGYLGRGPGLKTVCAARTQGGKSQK

Compound	IC50 [1] [nM]	other results
C[N+]1(C)[C@@H]2CC[C@H]1C[C@@H](OC(=O)C(CO)c1ccccc1)C2 (mixture of isomers) [Atropine methyl bromide]	3	–
C[N+]1(C)[C@@H]2CC[C@H]1C[C@@H](OC(=O)C(CO)c1ccccc1)C2 (mixture of isomers) [Atropine methyl nitrate]	1	–
CN1[C@@H]2CC[C@H]1C[C@@H](OC(c1ccccc1)c1ccccc1N)C2 (some centres unmarked) [Aminobenztropine]	3	–
O=C(O)CCc1ccc(NCc2cccc(Oc3ccccc3)c2)cc1 [GW9508]	–	Ratio b/a (EC50 IP-One / EC50 calcium) [2]: 1.1
CC[N+](CC)(CC)CCOc1ccc(/C=C/c2ccccc2)cc1 [MG 624]	398	–
CSCC[C@H](NC(=O)CNC(=O)[C@@H](NC(=O)CNC(=O)[C@@H](NC(=O)CNC(=O)[C@H](CC(N)=O)NC(=O)[C@H](CCCNC(=N)N)NC(=O)[C@H](Cc1ccccc1)NC(=O)[C@@H](N)CO)C(C)C)[C@@H](C)O)C(=O)N[C@@H](CCCCN)C(=O)N[C@@H](CCCCN)C(=O)N[C@H](C(=O)N[C@@H](CO)C(=O)N[C@@H](Cc1ccccc1)C(=O)N[C@@H](CCC(N)=O)C(=O)N[C@@H](CCCNC(=N)N)C(=O)N[C@@H](C)C(=O)N[C@@H](CCCCN)C(=O)N[C@@H](CO)C(=O)O)[C@@H](C)O [NPS, neuropeptide S] (H-SFRNGVGTGMKKTSFQRAKS-OH)	–	Ratio b/a (EC50 IP-One / EC50 calcium) [3]: 1.9; Kd (NPS receptor): 0.33 nM
CC(=O)O[C@H]1C[C@@H]2CC[C@@H]3[C@H](CC[C@@]4(C)[C@H]3C[C@H]([N+]3(C)CCCCC3)[C@@H]4OC(C)=O)[C@@]2(C)C[C@@H]1[N+]1(C)CCCCC1 [Pancuronium bromide]	12600	–
CC(C)[N+](C)(CCOC(=O)C1c2ccccc2Oc2ccccc21)C(C)C [Propantheline bromide]	1	–
Cc1scc2c1N(C(=O)CN1CCN(C)CC1)c1ccccc1NC2=O [Telenzepine dihydrochloride]	25	–
Neuropeptide S (from UniProt P0C0P6)	–	Kd [4]: 0.33 nM
